The values that follow come from patent US8614240B2, “Benzoxazole derivatives having inhibitory activity against interleukin-6, preparation method thereof, and pharmaceutical composition containing the same” (EWHA University-Industry Collaboration Foundation, priority 2010, dated 2013).

One data set relates to C57BL/6 female mice. Nature of the data set: In vivo test of toxicity of the compounds (body weight, appearance). The protocol: In the animal experiments, C57BL/6 female mice (control group 4 mice, test group (dose group) 4 mice) obtained from Central Lab. Animal Inc. were used. The experimental animals were acclimated by breeding them at the place established with temperature 23 ±3° C., relative humidity 50 ±10%, lighting time 12 hours (6 a.m.-6 p.m.), number of ventilation 10-20 times/hour, and illuminance 150-300 Lux, for one week. All the testers who evaluated the activity in animals worn high-pressure steam sterilized (121° C., 20 minutes) working clothes, hood, mask and gloves, and conducted the experiment. During the periods of accommodation and quarantine the experimental animals were accommodated in a polycarbonate-made shoes box-type breeding cage (260W×410L×200H mm) by 4 mice in each cage. During the periods of administration and observation, the experimental animals were accommodated in a wire breeding cage (205W×350 L×175H mm) with one mouse in each cage. During the period of experiments, the breeding cages were discriminated with attaching the labels in which the experiment numbers and the animal numbers were entered. The animals were allowed to freely ingest a radiation-sterilized (25 kGy, Picolab) solid feed for experimental animals as the feed, and tap water, which was sterilized with an autoclave, as the drinking water by means of a water bottle. […]

Data set [1] relates to IL-6 induced STAT3 phosphorylation. Kind of data set: Test for inhibitory activity against STAT3 phosphorylation induced by IL-6 (Western blot, HepG2). The class given is cell-based, human. Particulars: HepG2, 1, 3, 10, 30, 100 ug/ml, 10 ng/ml IL-6 (FIG. 4). As to the method: HepG2 cells were divisionally inoculated in 6-well plate in the ratio of 5×10^4 cells/well, and grown to be 80% confluent. After changing to a serum-free medium and incubating for 6 hours, cells were pre-treated with the samples for one hour. […] Then the mixture was centrifuged (13,000×g, 15 minutes) to obtain a lysate as the supernatant. Herein, HepG2 cells not treated with IL-6 and the samples were used as the control group. The concentration of proteins was quantified by means of Bio-Rad DC protein assay kit, and the protein was loaded on 10% SDS-polyacrylamide gel (SDS-PAGE) and electrophoresed at 30 mA for 2 hours. After completion of the electrophoresis, the protein on gel was transcribed into PVDF membrane (Westran® S, pore size […]) at 90V for 90 minutes, and the transcribed membrane was blocked with Tris-buffered solution (T-TBS; 50 mM Tri-HCl, pH 7.6, 150 mM NaCl, 0.2% Tween-20, 5% skim milk) at 4° C. for 12 hours, and washed five time with T-TBS. The membrane was treated with polyclonal antibodies of phospho-STAT3 (1:1000 dilutions, respectively) as the primary antibody for 2 hours. After washing five times with T-TBS, the membrane was reacted with HRP-conjugated anti-rabbit antibody (1:5000 dilutions) as the secondary antibody for one hour. After washing with T-TBS, the film was developed in the dark room by means of ECL.
(In general: In western blotting, separated proteins are transferred to a membrane and probed.)

Data set [2] has as its system Zymosan A-induced paw inflammation in C57BL/6 mice. Nature of the data set: Zymosan A-induced paw inflammation, effect of alleviating the inflammation. The class given is in vivo, mouse. The note with it: for Difference between the thicknesses of the right paw and left paw: Zymosan and 30 mg/kg Compound 3 into right paw. The protocol: For this experiment, C57BL/6 mice were obtained from Central Lab. Animal Inc., and acclimated for one week and then used in the experiment. The gender of animals used in the experiment was female, and 4 mice were used in each of the control group and the test group (Doe group). To experiment Compound 3's effect of alleviating the inflammation, the thicknesses of paws having the inflammation is reduced by injecting 3 mg of Zymosan A and 30 mg/kg of Compound 3 into right paws of the experimental animals, and both the paw thicknesses in the control group to which Zymosan A was administered to induce the inflammation and the control group having no treatment were measured every day, and the results are as shown in FIG. 7.
When the paw thickness was measured every day after inducing the inflammatory reaction by Zymosan, a difference between the thicknesses of the right paw and left paw was 8.5, 7.0, 6.5, 5.5, 5.6 mm. It could be identified that by treatment with Zymosan and Compound 3 the inflammatory reaction was alleviated so that a difference between paw thicknesses was 6.0, 3.0, 2.0, 1.9, 1.8 mm. A difference between paw thicknesses could also be identified in real photographs of the group treated only with Zymosan, the test group treated with Zymosan and Compound 3, and the control group having no treatment of the experimental animals on the 6th day in the inflammation alleviating assay (FIG. 8).

Regarding `CCc1ccc(Nc2nc3cc(NC(=O)c4ccccc4)ccc3o2)cc1` [Compound 3, N-(2-(4-ethylphenylamino)benzo[d]oxazol-5-yl)benzamide], the “Change in body weight compared to the control group” value with C57BL/6 female mice (30 mg/kg intraperitoneally once a day, 5 days, C57BL/6 female mice (FIG. 6)) was “did not show any change in the weight”. The “Toxic symptom in appearance” value with C57BL/6 female mice (after 6 days, C57BL/6 female mice) is given as “did not show any toxic symptom in appearance”. Moreover, the “Inhibitory activity on IL-6 induced STAT3 phosphorylation” value in data set [1] was “inhibited IL-6 expression in a concentration-dependent manner”. The “Effect of alleviating the inflammation” value in data set [2] (30 mg/kg, Zymosan A-induced paw inflammation (FIGS. 7, 8)) is “exhibited the effect of alleviating the inflammation”. Besides, the “Difference between the thicknesses of the right paw and left paw” value came out at 6.0 mm in data set [2] (1st daily measurement); 3.0 mm in data set [2] (2nd daily measurement); 2.0 mm in data set [2] (3rd daily measurement); 1.9 mm in data set [2] (4th daily measurement); 1.8 mm in data set [2] (5th daily measurement).
